In publication PMC12064818, “A general assay platform to study protein pharmacology using ligand-dependent structural dynamics” (Nature Communications, 2025):
Read-outs that look alike come from different tables or passages of the source.

Tests used:
[1] = target: T1, ABL1-N-HiBiT kinase domain (Homo sapiens, UniProt P00519); assay: ABL1 peptide phosphorylation, Kinase-Glo Plus (KGP) assay, ABL1-N-HiBiT; format: biochemical; parameters: containing amino acid residues Asp233-Ser500; His10 (N); made in house; host or cells: E. coli BL21(DE3)
T1 sequence (P00519 233-500): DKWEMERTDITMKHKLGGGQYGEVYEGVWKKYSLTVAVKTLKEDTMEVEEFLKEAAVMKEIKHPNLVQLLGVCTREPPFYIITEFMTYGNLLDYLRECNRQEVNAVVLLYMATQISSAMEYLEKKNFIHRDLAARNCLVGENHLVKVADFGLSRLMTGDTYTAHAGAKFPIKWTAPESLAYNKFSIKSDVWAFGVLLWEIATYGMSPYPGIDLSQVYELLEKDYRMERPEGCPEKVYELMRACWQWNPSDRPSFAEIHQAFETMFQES
Procedure: Kinase activity was measured by ATP depletion using the Kinase-Glo Plus (KGP) assay kit (Promega) in 1536-well plate format. […] Controls were added with a Mosquito dispenser (STP LabTech) while compounds were transferred with a pintool to each plate as described in Supplementary Data 8 and incubated for 30 min at ambient temperature. […] Following a 10 min incubation, KGP luminescence was measured with a ViewLux plate reader with 1 sec exposure, with medium to high gain setting, slow speed and 2x binning. Data were normalized to the average of no enzyme control column as 100% kinase inhibition and DMSO control column as 100% phosphorylation reaction progress. See Supplementary Table 5 for additional details.
Protocol for Abelson kinase (ABL1) and protein kinase A (PKA) peptide phosphorylation assays
Supplementary Table 5: Protocol for Abelson kinase (ABL1) and protein kinase A (PKA) peptide phosphorylation assays Sequence Param eter Value Description
3 Incubation 30 m in Incubate enzym e + com pounds at am bient tem p for 30 m in, protected from light […]
protocol; dispensed with BioRaptr 2

[2] = system: PKA; details: annotation yes/no for kinase library compound; source not given; cited from earlier work
[3] = target: T1, ABL1-N-HiBiT kinase domain; assay: SDR assay, ABL1-N-HiBiT
[4] = target: PKA-N-HiBiT (Homo sapiens, UniProt P17612); assay: SDR assay, PKA-N-HiBiT
[5] = target: T2, FLuc-C-NLuc (firefly luciferase) (Photinus pyralis, UniProt P08659, form not given/L550V); assay: SDR assay, FLuc-C-NLuc; details: Log[Compound]; for SDR+ATP: 10 mM ATP; for SDR: absence of ATP
T2 sequence (P08659 2-550 L550V, form open): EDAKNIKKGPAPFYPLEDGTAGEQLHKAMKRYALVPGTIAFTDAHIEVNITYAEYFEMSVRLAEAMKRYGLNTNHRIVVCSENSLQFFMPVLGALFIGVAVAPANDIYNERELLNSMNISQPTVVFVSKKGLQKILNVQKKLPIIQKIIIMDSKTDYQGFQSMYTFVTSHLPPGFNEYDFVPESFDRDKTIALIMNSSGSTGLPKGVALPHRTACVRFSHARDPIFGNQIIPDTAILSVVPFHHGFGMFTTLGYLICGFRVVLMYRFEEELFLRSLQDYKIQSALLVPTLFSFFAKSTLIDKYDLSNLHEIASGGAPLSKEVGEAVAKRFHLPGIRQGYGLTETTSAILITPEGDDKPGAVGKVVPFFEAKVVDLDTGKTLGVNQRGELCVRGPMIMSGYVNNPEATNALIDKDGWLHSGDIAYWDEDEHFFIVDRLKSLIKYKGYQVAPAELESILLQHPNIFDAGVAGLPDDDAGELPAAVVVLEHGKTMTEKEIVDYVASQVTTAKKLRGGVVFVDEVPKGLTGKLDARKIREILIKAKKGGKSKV

[6] = target: T2, FLuc-C-NLuc (firefly luciferase); assay: Firefly luciferase (FLuc) enzymatic luminescence assay, FLuc-C-NLuc; format: biochemical; parameters: key to Enz: % normalized; no enzyme control = 100% inhibition, DMSO = 0; details: Log[Compound]
Procedure: The enzyme activity of FLuc-N-HiBiT, FLuc-C-HiBiT, and FLuc-C-NLuc was measured similar to P. pyralis firefly luciferase (FLuc) as previously described. […] Compounds and controls were added to each plate as described in Supplementary Data 8 with a Hornet pintool system (Wako Automation). Compounds were incubated with respective enzymes for 30–60 min at room temperature protected from light and covered by solid metal lid to prevent evaporation. […] Luciferin was incubated with FLuc enzyme for 5 min before FLuc activity was then measured on a ViewLux CCD imager (PerkinElmer), with exposure times up to ten seconds with medium to high gain settings. Data were normalized to average no enzyme control as 100% enzyme inhibition and average DMSO neutral control. See Supplementary Table 4 for additional details.
Supplementary Table 4. Protocol for Firefly luciferase (FLuc) and NanoLuc (NLuc) enzymatic
Supplementary Table 4: Protocol for Firefly luciferase (FLuc) and NanoLuc (NLuc) enzym atic lum inescence assay
Firefly luciferase (FLuc) enzym atic lum inescence assay
Sequence Param eter Value Description
No enzym e control (colum n 1) and enzym e solution (1- 10 nM FLuc enzym e) in FLuc assay
1 Reagent 4 µLbuffer; white/solid bottom , m edium bind, high base plates (Greiner), dispensed with BioRaptr
com pounds transferred to respective colum ns with Pintool
2b Test Com pounds 23 nLconcentration range) in colum ns 5- 48; com pounds transferred to respective wells with
3 Incubation 30 m in Incubate enzym e + com pounds at am bient tem p for 30 m in, protected from light
4 Reagent 3 µLAdd 3 µL of D-luciferin substrate solution to each well (final concentration 10 µM); dispensed
5 Detector ViewLux Read plate lum inescence (Exposure = 1- 10 sec; Gain = Medium -high; Speed = Slow;
Dispensing solution was diluted in 1X PBS, pH 7.4. […]

[7] = ABL1-N-HiBiT qHTS, average, unit inferred, read-out: ABL1 KGP Ave IC50

Row | SMILES | SDR+ATP ([5]; M -4.48) | SDR ([5]; M -4.48) | SDR+ATP ([5]; M -4.96) | SDR ([5]; M -4.96) | SDR+ATP ([5]; M -5.44) | SDR ([5]; M -5.44) | SDR+ATP ([5]; M -5.91) | SDR ([5]; M -5.91) | SDR+ATP ([5]; M -6.39) | SDR ([5]; M -6.39) | SDR+ATP ([5]; M -6.87) | SDR ([5]; M -6.87) | SDR+ATP ([5]; M -7.35) | SDR ([5]; M -7.35) | SDR+ATP ([5]; M -7.82) | SDR ([5]; M -7.82) | SDR+ATP ([5]; M -8.30) | SDR ([5]; M -8.30) | SDR+ATP ([5]; M -8.78) | SDR ([5]; M -8.78) | also measured
1 | c1ccc(-c2oc3ncnc(NC[C@@H]4CCCO4)c3c2-c2ccccc2)cc1 [AIM-100] | – | – | – | – | – | – | – | – | – | – | – | – | – | – | – | – | – | – | – | – | ABL1 KGP pIC50 ([1]; ABL1, Kinase-Glo Plus (KGP), heatmap data, 128 kinase inhibitors): 4.83; IC50 [1, 7]: 15200 nM; Annotated PKA activity [2]: no; ABL1 SDR pSDR50 ([3]; ABL1, SDR, heatmap data, 128 kinase inhibitors): 5.05; SDR Ave Max Response ([3]; ABL1-N-HiBiT qHTS, average maximal SDR response): 62.31; EC50 ([3]; read-out: SDR Ave SDR50, ABL1-N-HiBiT qHTS, average, unit inferred): 9940 nM; SDR Ave Max Response ([4]; PKA-N-HiBiT qHTS, SDR assay, average maximal response): 5.90
2 | CCN1CCN(Cc2ccc(NC(=O)c3ccc(C)c(NC(=O)c4cncc(-c5cccs5)c4)c3)cc2C(F)(F)F)CC1 [ALW-II-41-27, reference compound] | – | – | – | – | – | – | – | – | – | – | – | – | – | – | – | – | – | – | – | – | IC50 ([1]; ABL1, Kinase-Glo Plus (KGP), heatmap data, 128 kinase inhibitors, read-out: ABL1 KGP pIC50 (converted)): 17.8 nM; IC50 [1, 7]: 18.2 nM; Annotated PKA activity [2]: no; detection in ABL1-N-HiBiT SDR assay (in words) [3]: potent inhibitor; EC50 ([3]; ABL1 SDR pSDR50, ABL1, SDR, heatmap data, 128 kinase inhibitors): 5.37 nM; EC50 ([3]; SDR Ave SDR50, ABL1-N-HiBiT qHTS, average, unit inferred): 6.72 nM; Emax ([3]; read-out: SDR Ave Max Response): 66.2%; Emax ([4]; read-out: SDR Ave Max Response): 16.2%
3 | CC(NC(=O)C1CCN(C(=O)c2ncn3c2COC(c2ccc(F)cc2)C3)CC1)c1ccc(F)cc1 (stereo not drawn) [NCGC00449825] | 5.00 | 0.68 | 3.92 | 1.78 | 2.46 | 4.05 | 1.09 | 3.40 | 1.15 | 4.21 | 0.36 | 3.25 | 2.57 | 4.32 | 1.95 | 4.76 | 0.0052 | 4.00 | 1.06 | 4.68 | SDR+ATP ([5]; M -9.25): -0.91; SDR ([5]; M -9.25): 3.86; Enz ([6]; M -4.48): -1.94; Enz ([6]; M -4.96): 0.62; Enz ([6]; M -5.44): 4.13; Enz ([6]; M -5.91): 4.09; Enz ([6]; M -6.39): 3.17; Enz ([6]; M -6.87): 4.88; Enz ([6]; M -7.35): 4.82; Enz ([6]; M -7.82): 4.76; Enz ([6]; M -8.30): 4.19; Enz ([6]; M -8.78): 1.93; Enz ([6]; M -9.25): -2.04
4 | CC1CCC(NC(=O)C2CCN(C(=O)c3ncn4c3COC(c3ccc(Cl)cc3)C4)CC2)CC1 (stereo not drawn) [NCGC00449845] | 6.40 | 1.49 | 2.52 | 2.34 | 1.90 | 1.62 | 1.22 | 2.01 | 1.15 | 2.08 | -0.36 | 2.37 | 0.68 | 2.03 | -0.0316 | 3.50 | 1.78 | 4.33 | 0.25 | 3.88 | SDR+ATP ([5]; M -9.25): 0.08; SDR ([5]; M -9.25): 3.41; Enz ([6]; M -4.48): -0.56; Enz ([6]; M -4.96): 2.86; Enz ([6]; M -5.44): 3.07; Enz ([6]; M -5.91): 4.57; Enz ([6]; M -6.39): 5.59; Enz ([6]; M -6.87): 3.54; Enz ([6]; M -7.35): 4.64; Enz ([6]; M -7.82): 4.98; Enz ([6]; M -8.30): 5.03; Enz ([6]; M -8.78): 3.56; Enz ([6]; M -9.25): 2.70
5 | O=C(Nc1cccc(F)c1)C1CCN(C(=O)c2ncn3c2COC(c2ccccc2)C3)CC1 (stereo not drawn) [NCGC00449914] | 74.59 | 9.87 | 66.41 | 8.14 | 59.05 | 7.78 | 45.60 | 15.68 | 30.44 | 7.72 | 16.83 | 9.23 | 11.29 | 8.67 | 8.00 | 8.73 | 7.51 | 7.88 | 6.04 | 10.30 | SDR+ATP ([5]; M -9.25): 5.78; SDR ([5]; M -9.25): 9.59; Enz ([6]; M -4.48): -94.95; Enz ([6]; M -4.96): -88.02; Enz ([6]; M -5.44): -77.30; Enz ([6]; M -5.91): -54.79; Enz ([6]; M -6.39): -35.39; Enz ([6]; M -6.87): -17.29; Enz ([6]; M -7.35): -8.21; Enz ([6]; M -7.82): -6.89; Enz ([6]; M -8.30): -1.14; Enz ([6]; M -8.78): 0.15; Enz ([6]; M -9.25): -6.05
6 | COc1ccc(NC(=O)C2CCN(C(=O)c3ncn4c3COC(c3ccccc3)C4)CC2)cc1Cl (stereo not drawn) [NCGC00449919] | 74.73 | 14.81 | 70.92 | 15.10 | 66.79 | 16.90 | 50.80 | 12.53 | 35.23 | 11.82 | 18.65 | 11.53 | 11.38 | 9.61 | 10.88 | 14.00 | 10.09 | 12.41 | 7.62 | 12.26 | SDR+ATP ([5]; M -9.25): 7.37; SDR ([5]; M -9.25): 12.55; Enz ([6]; M -4.48): -93.84; Enz ([6]; M -4.96): -85.33; Enz ([6]; M -5.44): -72.77; Enz ([6]; M -5.91): -49.98; Enz ([6]; M -6.39): -32.08; Enz ([6]; M -6.87): -7.65; Enz ([6]; M -7.35): -0.43; Enz ([6]; M -7.82): 7.65; Enz ([6]; M -8.30): 6.82; Enz ([6]; M -8.78): 6.26; Enz ([6]; M -9.25): 2.02
